Results reported in patent publication US20260092068A1, “PHYSICAL FORMS OF AN INHIBITOR OF PRC2” (ORIC Pharmaceuticals, Inc., priority 2022, published 2026).

Test: Stability of Form 2 of Compound 1 under storage conditions (impurities by UPLC, solid form by XRPD)
Assay type: physicochemical
Conditions: for Storage stability: up to 6 months
Experimental: To measure stability of the Form 2 of Compound 1 under storage conditions, samples of Form 2 of Compound 1 were placed in double low-density polyethylene bags with desiccant between the bags and each was placed into a high-density polyethylene drum. One drum was stored at a temperature of 25° C. and 60% relative humidity (RH), and a second drum was stored at a temperature of 40° C. and 75% RH. Samples of the material were taken from both drums at 1 month, 3 months, and 6 months and the samples were analyzed for the presence of impurities. The amount of the Form 2 of Compound 1, and the amount of any impurities, in each sample was measured by ultra-performance liquid chromatography (UPLC) using the test conditions set and solvent gradients forth in Table 5 and Table 6. The samples were tested to determine the amount remaining of Form 2 at each time point, and the measurements were conducted by x-ray powder diffraction (XRPD) according to USP <941>.

[1] = 25° C. and 60% RH, Initial (Time = zero)
[2] = 40° C. and at 75% RH, Initial (Time = zero)

- Total impurities present (% area measured by UPLC) [1]: 1.4 % area
- XRPD [1]: Crystalline
- Total impurities present (% area measured by UPLC) (25° C. and 60% RH, Time = 1 month): 1.4 % area
- XRPD (25° C. and 60% RH, Time = 1 month, consistent with T = 0): Crystalline
- Total impurities present (% area measured by UPLC) (25° C. and 60% RH, Time = 3 months): 1.4 % area
- XRPD (25° C. and 60% RH, Time = 3 months, consistent with T = 0): Crystalline
- Total impurities present (% area measured by UPLC) (25° C. and 60% RH, Time = 6 months): 1.4 % area
- XRPD (25° C. and 60% RH, Time = 6 months, consistent with T = 0): Crystalline
- Total impurities present (% area measured by UPLC) [2]: 1.4 % area
- XRPD [2]: Crystalline
- Total impurities present (% area measured by UPLC) (40° C. and at 75% RH, Time = 1 month): 1.4 % area
- XRPD (40° C. and at 75% RH, Time = 1 month, consistent with T = 0): Crystalline
- Total impurities present (% area measured by UPLC) (40° C. and at 75% RH, Time = 3 months): 1.4 % area
- XRPD (40° C. and at 75% RH, Time = 3 months, consistent with T = 0): Crystalline
- Total impurities present (% area measured by UPLC) (40° C. and at 75% RH, Time = 6 months): 1.4 % area
- XRPD (40° C. and at 75% RH, Time = 6 months, consistent with T = 0): Crystalline
- Storage stability (stored at 25° C. and 60% RH): stable
- Storage stability (stored at 40° C. and at 75% RH): stable
Structure (SMILES): Cc1cc(CN(C)C)ccc1-c1cnc(NCc2c(F)ccc3c2CCO3)n2cc(C#N)nc12 [Form 2 of Compound 1, 8-(4-((dimethylamino)methyl)-2-methylphenyl)-5-(((5-fluoro-2,3-dihydrobenzofuran-4-yl)methyl)amino)imidazo[1,2-c]pyrimidine-2-carbonitrile]
